Test results reported in patent US20240199755A1, “ANTAGONISTS AND AGONISTS OF THE TRANSFERRIN RECEPTOR-2 FOR USE IN THE TREATMENT OF DISEASES OF THE BONE” (Kymab Limited, priority 2018, published 2024).
Entries after “also recorded” stand apart in the source; their conditions may differ.

Experiments:
[1] = system: trauma-induced heterotopic ossification; assay: Trauma-potentiated (drop-weight) heterotopic ossification model; assay type: in vivo; settings: WT mice; after three weeks; Tfr2-ECD single dose, palovarotene or ibuprofen daily
Method: For systemic Tfr2-ECD treatment, WT mice were treated every other day with Tfr2-ECD intraperitoneally for two weeks. Mice received 250 μg Tfr2-ECD (10 mg/kg BW) per injection for the first 10 days after BMP-2/matrigel injection into the muscle and 125 μg per injection (5 mg/kg BW) for the remaining time. This experiment was performed once with 8-10 mice per group. Drop-weight HO: This experiment was performed according to Liu et al. with minor modifications^65. Female 10-12-week-old WT mice were anesthetized and placed on a ridge of a plastic container over which the right leg was bent so the femur was lying horizontally. Mice received an injection of 1 μg BMP-2 mixed in 50 μl matrigel. Afterwards, a stainless-steel ball of 16 g (16 mm diameter) was dropped from a distance of 80 cm height onto the quadriceps muscle. Mice either received a single dose of 1 μg Tfr2-ECD, which was co-injected with the BMP-2/matrigel mixture, or palovarotene (Hycultec), which was administered daily by oral gavage. Palovarotene was dissolved in DMSO and diluted 1:4 with corn oil. Mice received palovarotene at a dose of 100 μg/mouse for the first five days and 50 μg/mouse for the remainder of the experiment (days 621). One group of mice received ibuprofen via the drinking water at a dose of […] which was changed every other day^66. […]

[2] = system: BMP-2-induced heterotopic ossification; assay: BMP-2-induced heterotopic ossification (HO) mouse model; assay type: in vivo, mice; settings: WT mice; day 8; systemic treatment; Safranin O staining
Method: Male and female C57BL/6 mice are used for the HO model. The HO is triggered by injecting BMP-2 into the muscle (Wosczyna et al. 2012).
All the mice are fed with standard feed and water ad libitum and are kept in groups of five mice per cage. The mice are exposed to a 12-hour light/dark cycle and air cooling to 23° C. (no special pathogen-free room). Enrichment is provided in the form of cardboard houses and bedding material. The mice are randomly divided into the different treatment groups and the assays are subsequently carried out as blind experiments.
The HO is examined by means of treatment using 2.5 μl of a 1 mg/ml recombinant BMP-2 solution (Thermo Fisher Scientific) or 2.5 μl of a 1 mg/ml Tfr2-ECD mixed with 47.5 μl Matrigel (BD Bioscience) at 0° C. For combination treatment, 2.5 of a 1 mg/ml recombinant BMP-2 solution is mixed with 2.5 μl of a 1 mg/ml Tfr2-ECD and 45 μl Matrigel. The Matrigel mixtures are injected into the musculus tibialis anterior of 10-week-old female wild-type mice. The legs are examined after two weeks.
The bone microarchitecture is analyzed using vivaCT40 (Scanco Medical, Switzerland). The entire lower leg bones are measured at a resolution of 10.5 μm using X-rays of 70 kVp, […] and at an integration time of 200 s. Predefined scripts from Scanco are used to analyze the bone (#1). […]

[3] = biological target: T1, Tfr2-ECD (Mus musculus, UniProt Q9JKX3); assay: SPR binding of holo-Tf and BMP receptors to Tfr2-ECD immobilized on the sensor chip; set-up: species or system murine; settings: 200 nM BMP receptors; binding level normalized to molecular weight
T1 construct: full-length extracellular domain (ECD, aa 103-798) of murine Tfr2; His (N); MBP (N); c3 (protease site between MBP and ECD) (N); made in house; host or cells: Sf9 insect cells (baculovirus, pOCC211-Tfr2-ECD)
T1 sequence (Q9JKX3 103-798): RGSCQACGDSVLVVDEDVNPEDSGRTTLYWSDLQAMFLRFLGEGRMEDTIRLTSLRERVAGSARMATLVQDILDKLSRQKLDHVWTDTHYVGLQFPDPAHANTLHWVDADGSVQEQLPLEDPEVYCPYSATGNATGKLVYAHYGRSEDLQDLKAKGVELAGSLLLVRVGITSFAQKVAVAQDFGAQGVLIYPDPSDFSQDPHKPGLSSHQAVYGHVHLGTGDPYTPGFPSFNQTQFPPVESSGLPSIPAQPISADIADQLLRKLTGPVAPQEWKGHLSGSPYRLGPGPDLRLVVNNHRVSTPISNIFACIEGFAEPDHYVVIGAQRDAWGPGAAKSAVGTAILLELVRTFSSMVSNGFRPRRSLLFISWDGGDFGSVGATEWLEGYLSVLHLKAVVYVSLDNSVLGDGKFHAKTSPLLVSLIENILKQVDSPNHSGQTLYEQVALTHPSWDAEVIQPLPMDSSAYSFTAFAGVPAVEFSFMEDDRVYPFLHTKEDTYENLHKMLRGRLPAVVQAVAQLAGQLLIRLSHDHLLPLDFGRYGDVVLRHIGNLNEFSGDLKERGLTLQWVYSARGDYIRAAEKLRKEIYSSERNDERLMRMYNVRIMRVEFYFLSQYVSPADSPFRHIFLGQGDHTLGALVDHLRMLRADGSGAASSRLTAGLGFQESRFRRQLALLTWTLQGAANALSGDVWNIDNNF
Method: For this purpose, Tfr2-ECD is immobilized on a Series S Sensor Chip C1 (GE Healthcare), by means of coupling the amino groups at 25° C. The carboxyl groups on the chip surface are activated for 7 minutes using a mixture of 196 mM 1-ethyl-3-(3-dimethylaminopropyl) carbodiimide-hydrochloride and 50 mM n-hydroxysuccinimide at a flow rate of 10 μl/min. Subsequently, 5 μg/ml Tfr2-ECD, diluted with sodium acetate buffer (pH 4.5), is injected at a flow rate of 5 μl/min up to a relative occupancy of 200 RU. Non-reacted groups are inactivated by injecting 1 M thanolamine-HCl (pH 8.5) for 7 minutes at a flow rate of 10 μl/min. In order to prepare a reference surface, the same procedure is carried out but without Tfr2-ECD being injected.
The binding assays are carried out at 37° C. at a flow rate of 30 μl/min. Each analyte is diluted by a running buffer (HBS-P, pH 7.4 together with 50 nM FeCl3). […] The values of the binding level are read out, relative to the baseline, 10 s before the end of the injection and are corrected with respect to the molar mass. […] The binding parameters are determined using the Biacore™ T100 evaluation software 2.03. […]
For binding analysis, an injection of analyte for 240 s or 300 s over a Tfr2-ECD surface was followed by 1000 s dissociation. The values of the binding levels were recorded from referenced signals 10 s before the end of injection relative to baseline response. […]

Compound | New bone formation in the muscle (trauma-induced HO, μCT) [1] | Number of chondrocytes (chondrogenic phase of HO) [2] | Production of cartilage (chondrogenic phase of HO) [2] | Binding response of BMPRs to Tfr2-ECD compared with BMPs [3]
CC(C)Cc1ccc(C(C)C(=O)O)cc1 (centres unmarked) [ibuprofen] | did not prevent; also recorded: did not significantly reduce |  |  | 
CC1(C)CCC(C)(C)c2cc(Cn3cccn3)c(/C=C/c3ccc(C(=O)O)cc3)cc21 [palovarotene, reference compound] | comparable | suppressed | suppressed | 
BMPR-IA: BMP receptor type IA (R&D Systems), positive control in the BMP-2 ELISA |  |  |  | weaker than BMPs
